Data reported in article PMC6804443 (Acta Pharmaceutica Sinica. B, 2019).

How the values were obtained:
[1] = XueBiJing compounds; cited from earlier work
UGT2B15 = target: T1, UGT2B15 (Homo sapiens, UniProt P54855); assay: UGT2B15 inhibition by XueBiJing compounds, cDNA-expressed enzyme [SENI→S7G]; format: in vitro ADME
T1 sequence (P54855 24-530): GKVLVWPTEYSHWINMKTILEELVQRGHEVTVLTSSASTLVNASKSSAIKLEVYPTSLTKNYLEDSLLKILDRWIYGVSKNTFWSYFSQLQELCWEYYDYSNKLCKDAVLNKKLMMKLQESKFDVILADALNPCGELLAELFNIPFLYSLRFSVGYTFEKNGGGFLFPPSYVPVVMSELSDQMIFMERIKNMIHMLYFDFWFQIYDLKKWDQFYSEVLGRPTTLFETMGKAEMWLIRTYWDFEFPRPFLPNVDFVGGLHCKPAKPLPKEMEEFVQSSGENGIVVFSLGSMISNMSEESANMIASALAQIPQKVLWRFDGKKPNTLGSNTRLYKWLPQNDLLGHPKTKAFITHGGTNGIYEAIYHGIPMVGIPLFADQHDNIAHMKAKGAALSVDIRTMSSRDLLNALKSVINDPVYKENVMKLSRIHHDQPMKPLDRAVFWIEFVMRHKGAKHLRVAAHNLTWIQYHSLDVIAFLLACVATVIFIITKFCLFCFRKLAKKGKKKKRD

UGT1A6 = target: T2, UGT1A6 (Homo sapiens, UniProt P19224); assay: UGT1A6 inhibition by XueBiJing compounds, cDNA-expressed enzyme [4-MU→4-MUG]; format: in vitro ADME
T2 sequence (P19224 27-532): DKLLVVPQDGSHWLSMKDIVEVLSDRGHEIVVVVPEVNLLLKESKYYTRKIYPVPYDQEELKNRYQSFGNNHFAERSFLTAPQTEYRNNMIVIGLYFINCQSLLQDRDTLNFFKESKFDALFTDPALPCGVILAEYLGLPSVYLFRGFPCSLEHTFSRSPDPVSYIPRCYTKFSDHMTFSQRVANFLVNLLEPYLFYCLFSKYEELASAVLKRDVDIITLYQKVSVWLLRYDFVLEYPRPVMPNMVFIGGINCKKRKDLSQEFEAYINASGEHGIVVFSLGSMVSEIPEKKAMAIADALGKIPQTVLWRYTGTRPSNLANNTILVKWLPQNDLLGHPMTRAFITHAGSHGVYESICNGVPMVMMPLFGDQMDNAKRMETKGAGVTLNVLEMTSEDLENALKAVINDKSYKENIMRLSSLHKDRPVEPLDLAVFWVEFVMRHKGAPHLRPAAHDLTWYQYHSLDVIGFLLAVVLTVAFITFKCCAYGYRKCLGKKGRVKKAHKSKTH

CYP1A2 = conditions: higher concentrations; range over the named compounds and enzymes
CYP2C19 = CYP2C19 (Homo sapiens, UniProt P33261); format: in vitro ADME
UGT1A1 = target: T3, UGT1A1 (Homo sapiens, UniProt P22309); assay: UGT1A1 inhibition by XueBiJing compounds, cDNA-expressed enzyme [E2→E23βG]; format: in vitro ADME
T3 sequence (P22309 26-533): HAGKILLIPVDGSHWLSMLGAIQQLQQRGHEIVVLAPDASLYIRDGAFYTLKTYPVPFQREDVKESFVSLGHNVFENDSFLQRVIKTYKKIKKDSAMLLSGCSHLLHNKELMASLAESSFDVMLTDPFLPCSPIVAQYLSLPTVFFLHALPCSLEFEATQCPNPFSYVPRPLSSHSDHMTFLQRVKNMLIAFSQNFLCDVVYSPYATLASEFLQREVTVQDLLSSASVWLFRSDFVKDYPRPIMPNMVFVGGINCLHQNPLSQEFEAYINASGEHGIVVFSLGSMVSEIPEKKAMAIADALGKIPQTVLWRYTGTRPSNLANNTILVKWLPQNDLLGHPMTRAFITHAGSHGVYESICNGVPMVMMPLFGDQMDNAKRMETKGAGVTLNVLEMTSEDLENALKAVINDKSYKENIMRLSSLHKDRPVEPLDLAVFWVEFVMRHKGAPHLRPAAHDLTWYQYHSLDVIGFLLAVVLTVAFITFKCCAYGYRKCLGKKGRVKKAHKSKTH

OATP1B3 = target: T4, OATP1B3 (Homo sapiens, UniProt Q9NPD5); assay: in vitro
T4 sequence (Q9NPD5 1-702): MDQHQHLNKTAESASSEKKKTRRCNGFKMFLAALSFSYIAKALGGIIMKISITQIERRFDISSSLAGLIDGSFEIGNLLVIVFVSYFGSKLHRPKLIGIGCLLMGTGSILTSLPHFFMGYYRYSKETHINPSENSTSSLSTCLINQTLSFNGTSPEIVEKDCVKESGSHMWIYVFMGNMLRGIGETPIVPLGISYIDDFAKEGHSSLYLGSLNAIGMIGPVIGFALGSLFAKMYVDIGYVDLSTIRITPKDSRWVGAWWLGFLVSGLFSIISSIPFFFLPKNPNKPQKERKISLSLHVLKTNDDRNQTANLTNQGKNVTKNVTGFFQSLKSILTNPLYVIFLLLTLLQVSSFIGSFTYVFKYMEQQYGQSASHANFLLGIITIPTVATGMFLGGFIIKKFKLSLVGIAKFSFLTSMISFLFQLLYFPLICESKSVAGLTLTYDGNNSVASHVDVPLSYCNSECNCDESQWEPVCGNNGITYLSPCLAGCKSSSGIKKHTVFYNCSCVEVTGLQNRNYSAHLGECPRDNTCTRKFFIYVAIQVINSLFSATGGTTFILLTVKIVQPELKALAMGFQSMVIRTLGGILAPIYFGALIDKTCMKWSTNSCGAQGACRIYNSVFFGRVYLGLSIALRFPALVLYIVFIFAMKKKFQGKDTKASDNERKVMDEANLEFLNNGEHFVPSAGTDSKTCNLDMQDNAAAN

[2] = system: human drug metabolizing enzymes and transporters; assay: Inhibitory DDI index of XueBiJing compounds as perpetrators; conditions: XueBiJing at label dose; range over the named compounds

Chain of CYP2C19 (P33261 whole entry): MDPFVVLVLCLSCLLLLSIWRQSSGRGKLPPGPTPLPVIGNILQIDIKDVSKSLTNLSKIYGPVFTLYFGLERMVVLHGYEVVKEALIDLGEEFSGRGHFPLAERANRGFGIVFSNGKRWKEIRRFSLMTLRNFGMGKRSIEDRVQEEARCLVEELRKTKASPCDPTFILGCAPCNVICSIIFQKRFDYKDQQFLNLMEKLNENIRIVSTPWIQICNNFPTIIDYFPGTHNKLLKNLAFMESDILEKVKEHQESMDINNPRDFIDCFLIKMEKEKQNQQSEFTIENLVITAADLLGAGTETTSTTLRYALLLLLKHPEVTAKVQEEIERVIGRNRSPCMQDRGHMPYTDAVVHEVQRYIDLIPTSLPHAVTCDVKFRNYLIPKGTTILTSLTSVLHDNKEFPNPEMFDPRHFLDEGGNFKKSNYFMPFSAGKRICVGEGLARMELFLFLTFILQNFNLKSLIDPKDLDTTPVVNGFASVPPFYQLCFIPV

In the case of `O=C(/C=C/c1ccc(O)c2c1[C@H](C(=O)O[C@H](Cc1ccc(O)c(O)c1)C(=O)O)[C@@H](c1ccc(O)c(O)c1)O2)O[C@H](Cc1ccc(O)c(O)c1)C(=O)O` [X10, salvianolic acid B], the Membrane permeability [1] is given as “Poor”, the IC50 (UGT2B15) is given as 92 ± 25 µM and the inhibition at 100 μmol/L (UGT2B15; human, cDNA-expressed UGT2B15) is given as 55%. For the same compound, the IC50 (UGT1A6) was 15 ± 1 µM, the inhibition at 100 μmol/L (UGT1A6; human, cDNA-expressed UGT1A6, probe 4-MU (100 μmol/L), 4-MUG formed) was > 90% and the “mRNA-T/U ratio, CYP1A2” value (CYP1A2) was 4.0 to 9.6. For the same compound, the “Time-dependent inhibition of CYP2C19” value (CYP2C19) was “negligible”, the IC50 (UGT1A1) was 10 ± 1 µM and the inhibition at 100 μmol/L (UGT1A1; human, cDNA-expressed UGT1A1, probe E2 (20 μmol/L), E23βG formed) was > 90%. For the same compound, the inhibition at 100 μmol/L (OATP1B3) was > 50% and the “DDI index for inhibition of CYP2C9, CYP2C19, OATP1B1, OATP1B3, OAT1 and/or OAT3” value [2] was 0.00003–0.06.
